From patent EP0595557A1, “New substituted azetidinones as anti-inflammatory and antidegenerative agents” (MERCK & CO. INC., priority 1992, dated 1994)

Target: T1, Human Polymorphonuclear Leukocyte Elastase (Homo sapiens, UniProt P08246)
T1 construct: Crude extract of human polymorphonuclear leukocytes (PMN) containing elastase activity; from tissue; host or cells: human polymorphonuclear leukocytes (crude extract)
T1 sequence (P08246 30-267): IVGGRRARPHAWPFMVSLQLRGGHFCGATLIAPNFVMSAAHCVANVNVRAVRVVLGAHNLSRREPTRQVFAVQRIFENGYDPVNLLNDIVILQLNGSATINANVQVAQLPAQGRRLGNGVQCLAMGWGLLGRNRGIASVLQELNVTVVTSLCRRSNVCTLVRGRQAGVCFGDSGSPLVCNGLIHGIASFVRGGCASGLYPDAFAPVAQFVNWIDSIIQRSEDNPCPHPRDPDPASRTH
Experiment: Enzyme assay for inhibition of human polymorphonuclear leukocyte elastase via hydrolysis of Boc-AAPAN or Boc-AAPVN
Assay type: biochemical
Details: pH 7.5, second order rate constant for inactivation of the enzyme, expressed to the nearest thousand, read-out: Kobs/[I]
Description: Enzyme Assays for the Inhibition of Human Polymorphonuclear Leukocyte Elastase Via Hydrolysis of N-t-Boc-alanyl-alanyl-prolylalanine-p-nitroanilide (Boc-AAPAN) or N-t-Boc-alanyl-prolylvaline-p-nitro-anilide (Boc-AAPVN) Reagent:
0.05M TES (N-tris[hydroxymethyl]methyl-2-mino-ethanesulfonic acid) Buffer, pH 7.5.
0.2 mM Boc-AAPAN or Boc-AAPVN.
To prepare substrate, the solid was first dissolved in 10.0 ml DMSO. Buffer at pH 7.5 was then added to a final volume of 100 ml.
Crude extract of human polymorphonuclear leukocytes (PMN) containing elastase activity.
Inhibitors (azetidinones) to be tested dissolved in DMSO just before use.
To 1.0 ml of 0.2 mM Boc-AAPAN in a cuvette, 0.01-0.1 ml of DMSO with or without inhibitor was added. After mixing, a measurement was taken at 410 mµ to detect any spontaneous hydrolysis due to presence of test compound. 0.05 Milliliters of PMN extract was then added and the ΔOD/min at 410 mµ was measured and recorded. Beckman model 35 spectrophotometer was used.
Results were expressed to the nearest thousand ^kobs/I which is the second order rate constant in per mole per second for inactivation of the enzyme.
The elastase activity in the crude PMN extract may vary from one preparation to another. A control of each new batch is run, and the volume added in the assay procedure is adjusted according to activity.

Compound	kinact/KI [M⁻¹ s⁻¹]
CCC[C@@H](NC(=O)N1C(=O)C(CC)(CC)[C@@H]1Oc1ccc(CC(=O)N2CCN(C)CC2)cc1)c1ccc(C)cc1 [Compound 41]	974000
CCC[C@@H](NC(=O)N1C(=O)C(CC)(CC)[C@@H]1Oc1ccc(CC(=O)N2CCOCC2)cc1)c1ccc(C)cc1 [Compound 42]	1.09e+06
CCC[C@@H](NC(=O)N1C(=O)C(CC)(CC)[C@@H]1Oc1ccc(CC(=O)NCCN(C)C)cc1)c1ccc(C)cc1 [Compound 43]	1.21e+06
CCC[C@@H](NC(=O)N1C(=O)C(CC)(CC)[C@@H]1Oc1ccc(CC(=O)N(C)CCN(C)C)cc1)c1ccc(C)cc1 [Compound 44]	1.24e+06
CCC[C@@H](NC(=O)N1C(=O)C(CC)(CC)[C@@H]1Oc1ccc(CC(=O)NCCCN(C)C)cc1)c1ccc(C)cc1 [Compound 45]	1.12e+06
CCC[C@@H](NC(=O)N1C(=O)C(CC)(CC)[C@@H]1Oc1ccc(CC(=O)NCCc2ccncc2)cc1)c1ccc(C)cc1 [Compound 46]	2.25e+06
CCC[C@@H](NC(=O)N1C(=O)C(CC)(CC)[C@@H]1Oc1ccc(CC(=O)NCC(=O)O)cc1)c1ccc(C)cc1 [Compound 47]	876000
CCC[C@@H](NC(=O)N1C(=O)C(CC)(CC)[C@@H]1Oc1ccc(CC(=O)NC(C)C(=O)O)cc1)c1ccc(C)cc1 (stereo partly shown) [Compound 48]	676000
CCC[C@@H](NC(=O)N1C(=O)C(CC)(CC)[C@@H]1Oc1ccc(CC(=O)NCC(=O)N(CCO)CCO)cc1)c1ccc(C)cc1 [Compound 49]	1.3e+06
CCC[C@@H](NC(=O)N1C(=O)C(CC)(CC)[C@@H]1Oc1ccc(CC(=O)N(C)CC(=O)O)cc1)c1ccc(C)cc1 [Compound 50]	989000
CCC[C@@H](NC(=O)N1C(=O)C(CC)(CC)[C@@H]1Oc1ccc(CC(=O)NC(C)C(=O)N(CCO)CCO)cc1)c1ccc(C)cc1 (stereo partly shown) [Compound 51]	939000
CCC[C@@H](NC(=O)N1C(=O)C(CC)(CC)[C@@H]1Oc1ccc(CC(=O)N(C)CC(=O)N(CCO)CCO)cc1)c1ccc(C)cc1 [Compound 52]	273000
CCC[C@@H](NC(=O)N1C(=O)C(CC)(CC)[C@@H]1Oc1ccc(CC(=O)N(C)CCN2CCOCC2)cc1)c1ccc(C)cc1 [Compound 53]	2.51e+06
CCC[C@@H](NC(=O)N1C(=O)C(CC)(CC)[C@@H]1Oc1ccc(CC(=O)N(C)CCN(CCOC)CCOC)cc1)c1ccc(C)cc1 [Compound 54]	1.39e+06
CCC[C@@H](NC(=O)N1C(=O)C(CC)(CC)[C@@H]1Oc1ccc(CC(=O)N(C)CCN(CC)CC)cc1)c1ccc(C)cc1 [Compound 55]	1.32e+06
CCC[C@@H](NC(=O)N1C(=O)C(CC)(CC)[C@@H]1Oc1ccc(CC(=O)N(C)CCCN(C)C)cc1)c1ccc(C)cc1 [Compound 56]	1.05e+06
CCC[C@@H](NC(=O)N1C(=O)C(CC)(CC)[C@@H]1Oc1ccc(CC(=O)NCC(C)N(C)C)cc1)c1ccc(C)cc1 (stereo partly shown) [Compound 57]	1.34e+06
CCC[C@@H](NC(=O)N1C(=O)C(CC)(CC)[C@@H]1Oc1ccc(CC(=O)N(C)CCN(C(C)C)C(C)C)cc1)c1ccc(C)cc1 [Compound 58]	1.63e+06
CCC[C@@H](NC(=O)N1C(=O)C(CC)(CC)[C@@H]1Oc1ccc(CC(=O)N(CCC)CCC)cc1)c1ccc(C)cc1 [Compound 59]	1.14e+06
CCC[C@@H](NC(=O)N1C(=O)C(CC)(CC)[C@@H]1Oc1ccc(CC(=O)N(CC)CC)cc1)c1ccc(C)cc1 [Compound 60]	1.08e+06
CCC[C@@H](NC(=O)N1C(=O)C(CC)(CC)[C@@H]1Oc1ccc(CC(=O)Nc2cccc(Cl)c2)cc1)c1ccc(C)cc1 [Compound 61]	733000
CCC[C@@H](NC(=O)N1C(=O)C(CC)(CC)[C@@H]1Oc1ccc(CC(=O)Nc2cccc(OC)c2)cc1)c1ccc(C)cc1 [Compound 62]	1.62e+06
CCC[C@@H](NC(=O)N1C(=O)C(CC)(CC)[C@@H]1Oc1ccc(CC(=O)N(C)CCCC(=O)O)cc1)c1ccc(C)cc1 [Compound 64]	917000
CCC[C@@H](NC(=O)N1C(=O)C(CC)(CC)[C@@H]1Oc1ccc(CC(=O)N(C)CCCC(=O)NS(=O)(=O)c2ccccc2)cc1)c1ccc(C)cc1 [Compound 65]	1.34e+06
CCC[C@@H](NC(=O)N1C(=O)C(CC)(CC)[C@@H]1Oc1ccc(CC(=O)N(C)CCCN(C)Cc2ccccc2)cc1)c1ccc(C)cc1 [Compound 66]	1.36e+06

Compound	kinact/KI [M⁻¹ s⁻¹]
CCC[C@@H](NC(=O)N1C(=O)C(CC)(CC)[C@@H]1Oc1ccc(CC(=O)N(C)C)cc1)c1ccc(C)cc1 [Compound 67]	942000
CCC[C@@H](NC(=O)N1C(=O)C(CC)(CC)[C@@H]1Oc1ccc(CC(=O)N(C)Cc2ccccc2)cc1)c1ccc(C)cc1 [Compound 68]	1.9e+06
CCC[C@@H](NC(=O)N1C(=O)C(CC)(CC)[C@@H]1Oc1ccc(CC(=O)N(C)CCN(C)Cc2ccccc2)cc1)c1ccc(C)cc1 [Compound 69]	2.79e+06
CCC[C@@H](NC(=O)N1C(=O)C(CC)(CC)[C@@H]1Oc1ccc(CC(=O)NOCc2ccccc2)cc1)c1ccc(C)cc1 [Compound 70]	2.37e+06
CCC[C@@H](NC(=O)N1C(=O)C(CC)(CC)[C@@H]1Oc1ccc(CC(=O)N(C)c2ccc(C(=O)O)cc2)cc1)c1ccc(C)cc1 [Compound 71]	1.51e+06
CCC[C@@H](NC(=O)N1C(=O)C(CC)(CC)[C@@H]1Oc1ccc(CC(=O)N(C)c2ccc(C(=O)NS(=O)(=O)c3ccccc3)cc2)cc1)c1ccc(C)cc1 [Compound 72]	3.28e+06
CCCC(NC(=O)N1C(=O)C(CC)(CC)C1Oc1ccc(C(=O)NCCN(C)C)cc1)c1ccc(C)cc1 (stereo not shown) [Compound 73, 2-[4-[[[2-(dimethylamino)ethyl]amino]carbonyl]phenoxy]-3,3-diethyl-N-[1-(4-methylphenyl)butyl]-4-oxo-1-azetidinecarboxamide]	968000
CCC[C@@H](NC(=O)N1C(=O)C(CC)(CC)[C@@H]1Oc1ccc(C(=O)NCC(=O)O)cc1)c1ccc(C)cc1 [Compound 74]	1.43e+06
CCC[C@@H](NC(=O)N1C(=O)C(CC)(CC)[C@@H]1Oc1ccc(C(=O)N(C)CCN(C)C)cc1)c1ccc(C)cc1 [Compound 75, [S-(R*,S*)]-2-[4-[[[2-(dimethylamino)ethyl]methylamino]carbonyl]phenoxy]-3,3-diethyl-N-[1-(4-methylphenyl]butyl]-4-oxo-1-azetidinecarboxamide]	1.92e+06
CCC[C@@H](NC(=O)N1C(=O)C(CC)(CC)[C@@H]1Oc1ccc(C(=O)N(CC)CCN(C)C)cc1)c1ccc(C)cc1 [Compound 76]	1.44e+06
CCC[C@@H](NC(=O)N1C(=O)C(CC)(CC)[C@@H]1Oc1ccc(C(=O)NCCN(CC)CC)cc1)c1ccc(C)cc1 [Compound 77]	1.19e+06
CCC[C@@H](NC(=O)N1C(=O)C(CC)(CC)[C@@H]1Oc1ccc(C(=O)NCCN2CCOCC2)cc1)c1ccc(C)cc1 [Compound 78]	1.84e+06
CCC[C@@H](NC(=O)N1C(=O)C(CC)(CC)[C@@H]1Oc1ccc(C(=O)N(C)CCN2CCOCC2)cc1)c1ccc(C)cc1 [Compound 79]	2.12e+06
CCC[C@@H](NC(=O)N1C(=O)C(CC)(CC)[C@@H]1Oc1ccc(C(=O)N(C)CCN(CCOC)CCOC)cc1)c1ccc(C)cc1 [Compound 80]	2.08e+06
CCC[C@@H](NC(=O)N1C(=O)C(CC)(CC)[C@@H]1Oc1ccc(C(=O)N(C)CCN(CC)CC)cc1)c1ccc(C)cc1 [Compound 81]	2.19e+06
CCC[C@@H](NC(=O)N1C(=O)C(CC)(CC)[C@@H]1Oc1ccc(C(=O)N(CCN(C)C)c2ccccc2)cc1)c1ccc(C)cc1 [Compound 82]	2.5e+06
CCC[C@@H](NC(=O)N1C(=O)C(CC)(CC)[C@@H]1Oc1ccc(C(=O)N(C)CCCN(C)C)cc1)c1ccc(C)cc1 [Compound 83]	1.8e+06
CCC[C@@H](NC(=O)N1C(=O)C(CC)(CC)[C@@H]1Oc1ccc(C(=O)NCCN(C(C)C)C(C)C)cc1)c1ccc(C)cc1 [Compound 84]	2.1e+06
CCC[C@@H](NC(=O)N1C(=O)C(CC)(CC)[C@@H]1Oc1ccc(C(=O)N(C)CC[N+](C)(C)[O-])cc1)c1ccc(C)cc1 [Compound 85]	1.59e+06
CCC[C@@H](NC(=O)N1C(=O)C(CC)(CC)[C@@H]1Oc1ccc(C(=O)N(C)CCN(C(C)C)C(C)C)cc1)c1ccc(C)cc1 [Compound 86]	2.45e+06
CCC[C@@H](NC(=O)N1C(=O)C(CC)(CC)[C@@H]1Oc1ccc(C(=O)NS(=O)(=O)CCN2CCOCC2)cc1)c1ccc(C)cc1 [Compound 87]	775000
CCC[C@@H](NC(=O)N1C(=O)C(CC)(CC)[C@@H]1Oc1ccc(C(=O)NS(=O)(=O)CCN(C)C)cc1)c1ccc(C)cc1 [Compound 88]	788000
CCC[C@@H](NC(=O)N1C(=O)C(CC)(CC)[C@@H]1Oc1ccc(C(=O)NCCc2cnc[nH]2)cc1)c1ccc(C)cc1 [Compound 89]	2.09e+06
CCC[C@@H](NC(=O)N1C(=O)C(CC)(CC)[C@@H]1Oc1ccc(C(=O)NCCN2CCCCC2)cc1)c1ccc(C)cc1 [Compound 90]	941000
